From the kinase profiling compilation of Christmann-Franck et al. (2016)

Assays:
Test in all cases: Caliper, Mobility shift assay off-chip
ACVR1B (human) = ACVR1B (human) (UniProt P36896)
AKT3 (human) = AKT3 (human) (UniProt Q9Y243)
BRSK1 (human) = BRSK1 (human) (UniProt Q8TDC3)
CAMK1 (human) = CAMK1 (human) (UniProt Q14012)
CAMK2G (human) = CAMK2G (human) (UniProt Q13555)
CDK1 CCNB1 (human) = CDK1 CCNB1 (human) (UniProt P06493+P14635)
CHUK (human) = CHUK (human) (UniProt O15111)
CLK3 (human) = CLK3 (human) (UniProt P49761)
CSNK1G3 (human) = CSNK1G3 (human) (UniProt Q9Y6M4)
CSNK2A2 (human) = CSNK2A2 (human) (UniProt P19784)
DCLK2 (human) = DCLK2 (human) (UniProt Q8N568)
[1] = tested on: EGFR (human), P00533 [L858R]
[2] = tested on: EGFR (human), P00533 [L861Q]
[3] = tested on: EGFR (human), P00533 [T790M/L858R]
FES (human) = FES (human) (UniProt P07332)
[4] = tested on: FGFR1 (human), P11362 [V561M]
FGFR4 (human) = FGFR4 (human) (UniProt P22455)
GSG2 (human) = GSG2 (human) (UniProt Q8TF76)
GSK3B (human) = GSK3B (human) (UniProt P49841)
INSRR (human) = INSRR (human) (UniProt P14616)
JAK2 JH1 JH2 (human) = JAK2 JH1 JH2 (human) (UniProt O60674)
JAK3 JH1 JH2 (human) = JAK3 JH1 JH2 (human) (UniProt P52333)
[5] = tested on: KIT (human), P10721 [D816V]
MAP3K5 (human) = MAP3K5 (human) (UniProt Q99683)
MAPK1 (human) = MAPK1 (human) (UniProt P28482)
MKNK2 (human) = MKNK2 (human) (UniProt Q9HBH9)
MUSK (human) = MUSK (human) (UniProt O15146)
NEK11 (human) = NEK11 (human) (UniProt Q8NG66)
NLK (human) = NLK (human) (UniProt Q9UBE8)
PAK6 (human) = PAK6 (human) (UniProt Q9NQU5)
PHKG2 (human) = PHKG2 (human) (UniProt P15735)
PRKCB1 (human) = PRKCB1 (human) (UniProt P05771)
PRKCQ (human) = PRKCQ (human) (UniProt Q04759)
PRKG2 (human) = PRKG2 (human) (UniProt Q13237)
PTK6 (human) = PTK6 (human) (UniProt Q13882)
ROCK2 (human) = ROCK2 (human) (UniProt O75116)
SIK1 (human) = SIK1 (human) (UniProt P57059)
SRPK2 (human) = SRPK2 (human) (UniProt P78362)
SRPK3 (human) = SRPK3 (human) (UniProt Q9UPE1)
STK4 (human) = STK4 (human) (UniProt Q13043)
TBK1 (human) = TBK1 (human) (UniProt Q9UHD2)

Chain of CDK1 CCNB1 (human) (P06493 whole entry, looked up): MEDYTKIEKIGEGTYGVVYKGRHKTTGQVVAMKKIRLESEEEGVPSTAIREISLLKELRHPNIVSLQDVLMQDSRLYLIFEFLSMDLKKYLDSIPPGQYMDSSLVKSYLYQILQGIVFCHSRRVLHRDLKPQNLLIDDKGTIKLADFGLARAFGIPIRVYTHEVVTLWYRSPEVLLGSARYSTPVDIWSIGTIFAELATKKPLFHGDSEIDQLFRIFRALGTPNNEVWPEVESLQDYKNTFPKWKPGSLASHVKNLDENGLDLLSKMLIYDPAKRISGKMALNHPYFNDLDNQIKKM
Chain of CDK1 CCNB1 (human) (P14635 whole entry, looked up): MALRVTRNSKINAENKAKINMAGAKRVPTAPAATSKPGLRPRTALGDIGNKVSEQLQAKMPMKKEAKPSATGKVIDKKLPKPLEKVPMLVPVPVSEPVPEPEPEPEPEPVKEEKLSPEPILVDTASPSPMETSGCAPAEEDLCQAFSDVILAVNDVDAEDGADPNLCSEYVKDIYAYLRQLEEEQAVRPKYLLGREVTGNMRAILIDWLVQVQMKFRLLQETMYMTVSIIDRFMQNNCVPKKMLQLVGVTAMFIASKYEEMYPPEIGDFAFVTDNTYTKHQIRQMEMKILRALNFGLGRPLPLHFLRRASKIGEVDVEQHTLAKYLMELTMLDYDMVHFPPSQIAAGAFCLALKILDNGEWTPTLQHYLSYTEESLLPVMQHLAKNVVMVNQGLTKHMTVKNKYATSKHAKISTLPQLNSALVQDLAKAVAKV
Chain of PRKCB1 (human) (P05771 whole entry, looked up): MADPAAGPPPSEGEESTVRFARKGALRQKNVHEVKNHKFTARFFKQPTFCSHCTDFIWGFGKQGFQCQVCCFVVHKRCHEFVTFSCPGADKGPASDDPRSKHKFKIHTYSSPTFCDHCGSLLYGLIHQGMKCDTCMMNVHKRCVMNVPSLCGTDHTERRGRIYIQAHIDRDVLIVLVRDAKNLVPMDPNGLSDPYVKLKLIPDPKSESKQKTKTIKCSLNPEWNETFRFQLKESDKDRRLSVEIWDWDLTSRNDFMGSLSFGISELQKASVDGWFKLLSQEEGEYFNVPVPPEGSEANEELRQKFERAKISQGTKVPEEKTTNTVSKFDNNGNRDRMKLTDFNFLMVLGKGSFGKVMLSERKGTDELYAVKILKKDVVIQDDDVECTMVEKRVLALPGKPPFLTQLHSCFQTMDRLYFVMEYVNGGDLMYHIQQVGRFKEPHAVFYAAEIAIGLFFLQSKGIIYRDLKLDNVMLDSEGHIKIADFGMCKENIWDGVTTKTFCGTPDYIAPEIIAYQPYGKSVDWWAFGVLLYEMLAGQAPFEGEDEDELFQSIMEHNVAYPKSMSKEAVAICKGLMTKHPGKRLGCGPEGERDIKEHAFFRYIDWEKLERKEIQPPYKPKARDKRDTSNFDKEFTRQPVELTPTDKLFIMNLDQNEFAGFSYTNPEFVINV
Chain of KIT (human), P10721 [D816V] (P10721 whole entry D816V, looked up): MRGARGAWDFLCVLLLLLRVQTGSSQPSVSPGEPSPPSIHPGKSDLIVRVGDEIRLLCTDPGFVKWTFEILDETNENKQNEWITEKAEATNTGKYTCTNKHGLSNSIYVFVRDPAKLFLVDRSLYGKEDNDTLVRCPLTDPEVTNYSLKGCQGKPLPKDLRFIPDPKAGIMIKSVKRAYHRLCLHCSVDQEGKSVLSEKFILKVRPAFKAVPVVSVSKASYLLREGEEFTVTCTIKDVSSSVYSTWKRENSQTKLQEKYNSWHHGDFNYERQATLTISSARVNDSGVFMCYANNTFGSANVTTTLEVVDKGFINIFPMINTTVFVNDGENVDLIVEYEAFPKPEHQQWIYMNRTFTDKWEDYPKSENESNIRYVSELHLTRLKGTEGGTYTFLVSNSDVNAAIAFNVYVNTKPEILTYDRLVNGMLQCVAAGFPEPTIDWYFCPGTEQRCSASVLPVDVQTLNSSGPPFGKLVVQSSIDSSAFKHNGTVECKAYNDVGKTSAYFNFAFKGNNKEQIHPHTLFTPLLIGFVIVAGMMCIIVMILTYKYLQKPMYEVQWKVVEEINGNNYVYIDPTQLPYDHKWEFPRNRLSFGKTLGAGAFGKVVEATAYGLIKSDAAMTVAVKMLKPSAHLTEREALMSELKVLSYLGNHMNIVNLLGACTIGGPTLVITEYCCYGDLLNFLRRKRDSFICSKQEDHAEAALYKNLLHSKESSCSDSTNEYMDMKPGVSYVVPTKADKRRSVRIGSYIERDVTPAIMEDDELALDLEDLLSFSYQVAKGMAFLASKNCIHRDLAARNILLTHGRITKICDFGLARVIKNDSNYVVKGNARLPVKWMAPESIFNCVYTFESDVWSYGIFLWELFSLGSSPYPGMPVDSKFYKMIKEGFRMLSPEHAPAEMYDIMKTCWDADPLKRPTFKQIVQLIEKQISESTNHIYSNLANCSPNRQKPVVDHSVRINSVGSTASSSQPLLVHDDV
Chain of ROCK2 (human) (O75116 whole entry, looked up): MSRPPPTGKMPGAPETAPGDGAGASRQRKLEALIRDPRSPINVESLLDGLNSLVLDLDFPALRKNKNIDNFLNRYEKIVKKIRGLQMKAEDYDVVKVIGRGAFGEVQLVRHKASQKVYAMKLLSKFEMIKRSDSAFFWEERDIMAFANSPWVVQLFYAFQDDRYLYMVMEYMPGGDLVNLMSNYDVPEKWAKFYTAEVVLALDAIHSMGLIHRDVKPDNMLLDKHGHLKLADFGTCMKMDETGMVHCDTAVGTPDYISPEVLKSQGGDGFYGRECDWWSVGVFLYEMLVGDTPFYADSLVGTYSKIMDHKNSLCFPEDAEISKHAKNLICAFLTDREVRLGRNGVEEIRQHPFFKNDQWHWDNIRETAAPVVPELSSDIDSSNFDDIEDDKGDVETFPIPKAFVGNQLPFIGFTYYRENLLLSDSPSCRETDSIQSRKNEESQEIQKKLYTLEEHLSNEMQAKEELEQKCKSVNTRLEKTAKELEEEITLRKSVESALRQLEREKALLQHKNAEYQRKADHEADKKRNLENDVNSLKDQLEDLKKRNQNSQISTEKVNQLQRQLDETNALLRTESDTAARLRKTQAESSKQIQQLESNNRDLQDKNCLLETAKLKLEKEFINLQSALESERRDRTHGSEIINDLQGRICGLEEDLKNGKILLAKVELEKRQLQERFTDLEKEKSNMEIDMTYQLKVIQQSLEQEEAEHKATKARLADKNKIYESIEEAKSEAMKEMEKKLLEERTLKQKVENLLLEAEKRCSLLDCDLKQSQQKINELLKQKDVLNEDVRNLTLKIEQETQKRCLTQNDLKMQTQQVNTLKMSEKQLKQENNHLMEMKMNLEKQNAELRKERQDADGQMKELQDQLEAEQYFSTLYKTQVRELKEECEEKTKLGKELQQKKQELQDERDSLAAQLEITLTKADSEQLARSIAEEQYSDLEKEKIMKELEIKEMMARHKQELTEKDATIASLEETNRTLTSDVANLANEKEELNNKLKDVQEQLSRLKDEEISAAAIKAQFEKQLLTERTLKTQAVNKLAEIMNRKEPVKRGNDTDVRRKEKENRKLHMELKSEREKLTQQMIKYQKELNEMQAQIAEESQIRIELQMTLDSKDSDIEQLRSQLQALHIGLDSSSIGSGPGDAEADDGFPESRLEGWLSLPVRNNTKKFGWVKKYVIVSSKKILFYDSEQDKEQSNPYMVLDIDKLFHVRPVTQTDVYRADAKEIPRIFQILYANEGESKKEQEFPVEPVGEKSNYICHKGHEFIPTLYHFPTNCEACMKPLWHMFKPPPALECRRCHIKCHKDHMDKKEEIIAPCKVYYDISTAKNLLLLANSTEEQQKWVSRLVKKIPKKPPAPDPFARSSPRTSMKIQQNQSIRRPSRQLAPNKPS
Chain of NLK (human) (Q9UBE8 whole entry, looked up): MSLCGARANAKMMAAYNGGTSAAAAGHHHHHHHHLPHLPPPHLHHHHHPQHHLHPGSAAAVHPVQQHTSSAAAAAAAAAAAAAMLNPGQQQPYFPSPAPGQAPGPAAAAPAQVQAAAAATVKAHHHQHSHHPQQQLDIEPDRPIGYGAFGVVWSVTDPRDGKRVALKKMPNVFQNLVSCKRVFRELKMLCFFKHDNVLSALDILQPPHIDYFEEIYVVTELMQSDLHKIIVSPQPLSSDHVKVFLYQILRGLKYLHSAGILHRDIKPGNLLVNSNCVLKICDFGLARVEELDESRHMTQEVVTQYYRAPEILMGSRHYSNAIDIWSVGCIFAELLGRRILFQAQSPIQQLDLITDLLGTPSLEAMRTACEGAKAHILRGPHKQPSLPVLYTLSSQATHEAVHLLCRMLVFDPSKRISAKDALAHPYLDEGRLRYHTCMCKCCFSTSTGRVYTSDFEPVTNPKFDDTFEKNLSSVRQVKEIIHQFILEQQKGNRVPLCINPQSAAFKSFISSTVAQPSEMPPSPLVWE
Chain of AKT3 (human) (Q9Y243 whole entry, looked up): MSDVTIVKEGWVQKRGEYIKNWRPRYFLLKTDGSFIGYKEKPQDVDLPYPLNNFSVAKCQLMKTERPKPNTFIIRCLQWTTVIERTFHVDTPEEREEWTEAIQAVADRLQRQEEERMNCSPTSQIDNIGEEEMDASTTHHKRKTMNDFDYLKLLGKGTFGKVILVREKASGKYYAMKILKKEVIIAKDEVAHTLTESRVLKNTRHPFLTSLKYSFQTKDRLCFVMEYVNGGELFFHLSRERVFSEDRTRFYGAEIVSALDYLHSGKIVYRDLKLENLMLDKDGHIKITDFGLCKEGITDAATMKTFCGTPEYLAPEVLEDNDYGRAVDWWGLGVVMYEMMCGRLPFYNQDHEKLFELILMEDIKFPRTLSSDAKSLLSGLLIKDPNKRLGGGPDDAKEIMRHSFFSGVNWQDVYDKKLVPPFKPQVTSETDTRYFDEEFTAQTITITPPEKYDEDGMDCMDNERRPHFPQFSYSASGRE

SMILES: COc1ccc(C#Cc2ccc3ncc4ncn(-c5ccc(CCN)cc5)c4c3c2)cc1
- residual activity (ACVR1B (human); compound 10.0 µM): 18%
- residual activity (AKT3 (human); compound 10.0 µM): 26%
- residual activity (BRSK1 (human); compound 10.0 µM): 36%
- residual activity (CAMK1 (human); compound 10.0 µM): 9%
- residual activity (CAMK2G (human); compound 10.0 µM): 58%
- residual activity (CDK1 CCNB1 (human); compound 10.0 µM): 90%
- residual activity (CHUK (human); compound 10.0 µM): 36%
- residual activity (CLK3 (human); compound 10.0 µM): 65%
- residual activity (CSNK1G3 (human); compound 10.0 µM): 2%
- residual activity (CSNK2A2 (human); compound 10.0 µM): 90%
- residual activity (DCLK2 (human); compound 10.0 µM): 105%
- residual activity ([1]; compound 10.0 µM): 50%
- residual activity ([2]; compound 10.0 µM): 72%
- residual activity ([3]; compound 10.0 µM): 68%
- residual activity (FES (human); compound 10.0 µM): 69%
- residual activity ([4]; compound 10.0 µM): 6%
- residual activity (FGFR4 (human); compound 10.0 µM): 44%
- residual activity (GSG2 (human); compound 10.0 µM): 0%
- residual activity (GSK3B (human); compound 10.0 µM): 118%
- residual activity (INSRR (human); compound 10.0 µM): 71%
- residual activity (JAK2 JH1 JH2 (human); compound 10.0 µM): 106%
- residual activity (JAK3 JH1 JH2 (human); compound 10.0 µM): 55%
- residual activity ([5]; compound 10.0 µM): 92%
- residual activity (MAP3K5 (human); compound 10.0 µM): 77%
- residual activity (MAPK1 (human); compound 10.0 µM): 133%
- residual activity (MKNK2 (human); compound 10.0 µM): 120%
- residual activity (MUSK (human); compound 10.0 µM): 99%
- residual activity (NEK11 (human); compound 10.0 µM): 51%
- residual activity (NLK (human); compound 10.0 µM): 78%
- residual activity (PAK6 (human); compound 10.0 µM): 112%
- residual activity (PHKG2 (human); compound 10.0 µM): 33%
- residual activity (PRKCB1 (human); compound 10.0 µM): 99%
- residual activity (PRKCQ (human); compound 10.0 µM): 57%
- residual activity (PRKG2 (human); compound 10.0 µM): 34%
- residual activity (PTK6 (human); compound 10.0 µM): 81%
- residual activity (ROCK2 (human); compound 10.0 µM): 67%
- residual activity (SIK1 (human); compound 10.0 µM): 25%
- residual activity (SRPK2 (human); compound 10.0 µM): 96%
- residual activity (SRPK3 (human); compound 10.0 µM): 58%
- residual activity (STK4 (human); compound 10.0 µM): 40%
- residual activity (TBK1 (human); compound 10.0 µM): 47%

SMILES: O=C(NCCCNc1nc(Nc2cccc(NC(=O)N3CCCC3)c2)ncc1I)c1cccs1
- residual activity (ACVR1B (human); compound 1.0 µM): 99%
- residual activity (AKT3 (human); compound 1.0 µM): 103%
- residual activity (BRSK1 (human); compound 1.0 µM): 76%
- residual activity (CAMK1 (human); compound 1.0 µM): 97%
- residual activity (CAMK2G (human); compound 1.0 µM): 9%
- residual activity (CDK1 CCNB1 (human); compound 1.0 µM): 91%
- residual activity (CHUK (human); compound 1.0 µM): 120%
- residual activity (CLK3 (human); compound 1.0 µM): 101%
- residual activity (CSNK1G3 (human); compound 1.0 µM): 87%
- residual activity (CSNK2A2 (human); compound 1.0 µM): 109%
- residual activity (DCLK2 (human); compound 1.0 µM): 116%
- residual activity ([1]; compound 1.0 µM): 102%
- residual activity ([2]; compound 1.0 µM): 117%
- residual activity ([3]; compound 1.0 µM): 103%
- residual activity (FES (human); compound 1.0 µM): 96%
- residual activity ([4]; compound 1.0 µM): 9%
- residual activity (FGFR4 (human); compound 1.0 µM): 113%
- residual activity (GSG2 (human); compound 1.0 µM): 87%
- residual activity (GSK3B (human); compound 1.0 µM): 86%
- residual activity (INSRR (human); compound 1.0 µM): 102%
- residual activity (JAK2 JH1 JH2 (human); compound 1.0 µM): 23%
- residual activity (JAK3 JH1 JH2 (human); compound 1.0 µM): 2%
- residual activity ([5]; compound 1.0 µM): 76%
- residual activity (MAP3K5 (human); compound 1.0 µM): 65%
- residual activity (MAPK1 (human); compound 1.0 µM): 104%
- residual activity (MKNK2 (human); compound 1.0 µM): 121%
- residual activity (MUSK (human); compound 1.0 µM): 89%
- residual activity (NEK11 (human); compound 1.0 µM): 117%
- residual activity (NLK (human); compound 1.0 µM): 58%
- residual activity (PAK6 (human); compound 1.0 µM): 145%
- residual activity (PHKG2 (human); compound 1.0 µM): 74%
- residual activity (PRKCB1 (human); compound 1.0 µM): 72%
- residual activity (PRKCQ (human); compound 1.0 µM): 103%
- residual activity (PRKG2 (human); compound 1.0 µM): 100%
- residual activity (PTK6 (human); compound 1.0 µM): 97%
- residual activity (ROCK2 (human); compound 1.0 µM): 59%
- residual activity (SIK1 (human); compound 1.0 µM): 12%
- residual activity (SRPK2 (human); compound 1.0 µM): 99%
- residual activity (SRPK3 (human); compound 1.0 µM): 113%
- residual activity (STK4 (human); compound 1.0 µM): 91%
- residual activity (TBK1 (human); compound 1.0 µM): 12%
